Experiments:
HIF-1α = HIF-1α expressions of the NSCs, Western blot; assay type: cell-based, mice
Procedure: (§1) To prepare the NSCs, after removal of meninges, subventricular zones (SVZ) of lateral ventricles from adult mice brain (4 week-of-age) are aseptically isolated and dissociated as previously described (J Cell Sci 2006; 119, 4467-4474). All steps are operated under sterile conditions. Then, neurosphere culture are prepared in neurobasal (NB) medium (Gibco BRL) supplemented with 2% of B27 (Gibco BRL), 2 mM of L-glutamine (PAN Biotech), 100 U/ml of penicillin/0.1 […] of streptomycin (Gibco BRL). For maintenance and expansion of the cultures, the NB/B27 is further supplemented with 2 μg/mL of heparin (Sigma), 20 ng/mL of FGF-2 (R&D Systems) and 20 ng/mL of EGF (R&D Systems). Neurosphere cultures are maintained at 37° C. in a humidified incubator with 5% CO2. For clonal/low density cultures, primary neurospheres grown at high density are dissociated into a single cell suspension and reseeded into 96-well plates at 100 cells per ml of media and the number of newly formed neurospheres is counted after 7 days. In addition, the Bmi-1 expressions, SOX2 expressions, Nestin expressions, Musashi-1 expressions, BrdU expressions and ki-67 expressions of the newly formed neurospheres are determined by the immunofluorescence staining. […]
(§2) The NSCs are exposed to the various dosages of the Compound 1 (0.1 μM, 1 μM, 10 μM and 100 μM) and cultured in the neurosphere culture. The HIF-1α expressions and the Bmi-1 expressions of the NSCs are detected by the Western blot analysis. […]
(§3) In another example, the HIF-1α expressions of the NSCs are inhibited and then 1 μM of the Compound 1 is added into the medium of the NSCs. The HIF-1α expression and the Bmi-1 expressions of the NSCs are detected by the Western blot analysis. […]
(§4) In still another example, the NSCs are exposed to 1 μM of the Compound 1 and further cultured for various lengths of time (0.5 hour, 1 hour, 4 hours, 8 hours, 16 hours and 24 hours). The HIF-1α expressions and the Bmi-1 expressions of the NSCs are detected by the Western blot analysis. […]

Bmi-1 [1] = test: Bmi-1 expressions of the NSCs, Western blot; assay type: cell-based, mice
Procedure: as §1, §2, §3, §4

Bmi-1 [2] = test: Bmi-1 expressions of the NSCs in the SVZ and the DG of the ischemic rats, immunofluorescence staining; assay type: in vivo, Sprague-Dawley (SD) rats
[3] = system: NSC in the brain of the ischemic rats; test: Proliferation marker expressions (BrdU, ki-67) in the SVZ and DG of the ischemic rats; assay type: in vivo, Sprague-Dawley (SD) rats
From the text: (§5) The ischemic rats are induced by an ischemia-reperfusion model to simulate transient focal cerebral ischemia in rats. Test animals are male Sprague-Dawley (SD) rats weighing 250-300 g. The rats are anesthetized with chloral hydrate (0.4 g/kg IP) and subjected to cerebral ischemia. The ischemia-reperfusion model is induced by ligations of bilateral common carotid arteries (CCAs) and a right middle cerebral artery (MCA). The bilateral CCAs are clamped with non-traumatic arterial clips, and the right MCA is ligated with an 10-0 nylon suture. After 90 minutes ischemia, the suture on the MCA and the arterial clips on CCAs are removed to allow reperfusion. Core body temperature is monitored with a thermistor probe (Hewlett-Packard Model 21090A probe, Hewlett-Packard Company, Andover, Mass.), and maintained at 37° C. with a heating pad during anesthesia. After recovery from anesthesia, rat body temperature is maintained at 37° C. with a heat lamp.
The ischemic rats treated with different dosages of the Compound 1 (0.1 mg/kg, 1 mg/kg and 10 mg/kg) and the ischemic rats reduced the Bmi-1 expressions or the HIF-1α expressions and then treated with 1 mg/kg of the Compound 1 are decapitated, and the brain tissues thereof are performed the immunofluorescence staining to detect the proliferation marker expressions (BrdU and ki-67) in the brains of the ischemic rats.

ischemic rats = test: Volume of the infarction after cerebral ischemia, magnetic resonance imaging (MRI); assay type: in vivo, Sprague-Dawley (SD) rats
From the text: as §5
Further, the ischemic rats are assigned into 5 groups, 4 test groups and 1 control group. The ischemic rats of the test groups are injected with 1 mg/kg of the Compound 1, 30 mg/kg of the genipin, 1 mg/kg of the Compound 1 and 100 mg/kg of 2-ME2, and 1 mg/kg of the Compound 1 and the LV-Bmi-1-sh, respectively. The ischemic rats of the control group are injected with the vehicle. At 7 days after the injection, the ischemic rats of the different groups are anesthetized, and the volume of the infarction thereof is assessed by a magnetic resonance imaging (MRI).

[4] = 1 μM, 0.5 to 24 hours tested, FIG. 10C
[5] = 0.1, 1, 10, 100 μM, normoxia (21% O2), in particular 1 μM, FIG. 10A
[6] = 1 mg/kg, 7 days after the injection, FIGS. 18A, 18B
[7] = 1 μM 2-ME2 for 16 hours, then 1 μM Compound 1, FIG. 10B
[8] = 2-ME2 treatment plus 1 mg/kg Compound 1

SMILES	exposure time at which the NSCs express the most HIF-1α (HIF-1α; [4])	HIF-1α expressions of the NSCs (HIF-1α; [5])	exposure time at which the NSCs express the most Bmi-1 (Bmi-1 [1]; [4])	Bmi-1 expressions of the NSCs (Bmi-1 [1]; [5])	number of Bmi-1+Nestin+ NSCs in the SVZ and the DG (Bmi-1 [2]; 0.1, 1, 10 mg/kg vs control, in particular 1 mg/kg, FIGS. 14A to 14D)	numbers of BrdU+ cells in the SVZ and the DG of the brains of the ischemic rats ([3]; 0.1, 1, 10 mg/kg vs control, in particular 1 mg/kg, FIGS. 15A to 15D)	numbers of ki-67+ cells in the SVZ and the DG of the brains of the ischemic rats ([3]; 0.1, 1, 10 mg/kg vs control, in particular 1 mg/kg, FIGS. 15E to 15H)	effect on the reduction of the infarction area, compared with genipin (ischemic rats; 1 mg/kg Compound 1 vs 30 mg/kg genipin, 7 days)	area of the largest infarction (MRI) (ischemic rats; [6])	volume of the infarction (MRI) (ischemic rats; [6])	enhancement of the HIF-1α expressions induced by the Compound 1 in NSCs (HIF-1α; [7])	enhancement of the Bmi-1 expressions induced by the Compound 1 in NSCs (Bmi-1 [1]; [7])	Compound-1-induced enhancement of Bmi-1+Nestin+ NSCs numbers (Bmi-1 [2]; 100 mg/kg 2-ME2 intraperitoneal plus 1 mg/kg Compound 1)	Compound 1 increased numbers of the BrdU+ cells in the SVZ and the DG [3, 8]	Compound 1 increased numbers of the ki-67+ cells in the SVZ and the DG [3, 8]	Compound-1-induced reduction of the volume of the infarction (MRI) (ischemic rats; 100 mg/kg 2-ME2 plus 1 mg/kg Compound 1, 7 days)
COC(=O)C1=CO[C@@H](O)[C@@H]2C(COC(=O)[C@@H](N)Cc3ccccc3)=CC[C@H]12 [Compound 1]	0.5 h	increased	16 h	increased	significantly increases	significant enhancement	significant enhancement	better than that of the genipin	significantly reduced	significantly reduced						
COc1cc2c(cc1O)CC[C@@H]1[C@@H]2CC[C@]2(C)[C@@H](O)CC[C@@H]12 [Compound 2-ME2, 2-Methoxyestradiol, reference compound]											abolished	abolished	inhibits	abolishes	abolishes	abolishes

— US10035791B2, “Bicyclic compound and pharmaceutical composition thereof for treating stroke and use thereof” (China Medical University, priority 2016, dated 2018)
